In patent US9238039B2, “Pyrazolo[1,5-A]pyrimidines for antiviral treatment” (Gilead Sciences, Inc., priority 2010, dated 2016):

Test system: RSV strain A2
Test: RSV antiviral cytoprotection assay in Hep2 cells (96-well and 384-well format, Cell TiterGlo read-out)
Type: cell-based, Respiratory Syncytial Virus (RSV)
Conditions: for inhibition at 0.5 µM: HEp-2, 0.5 uM, RSV-induced cytopathic effect in Hep2 cells, calculated from fitted dose response curve, normalized to 0% and 100%; for EC50: Hep2 cells, class symbols
[1] = human respiratory syncytial virus
[2] = human respiratory syncytial virus, HEp-2, RSV-induced cytopathic effects

Row | SMILES | EC50 [2] [nM] | EC50 (RSV-induced cytopathic effects) [nM] | inhibition at 0.5 µM [1] [%]
1 | CS(=O)(=O)Nc1ccc(Cl)cc1C(=O)N1CCCC[C@H]1c1cc2nc(N3CCC3)cc(N3CCSC3)n2n1 [Compound 106] | 0.1 to 100 | – | 100
2 | Cc1cn2nc([C@@H]3CCCCN3C(=O)c3cnco3)cc2nc1N1CC[C@H](N)C1 [Compound 259] | 1000 to 10000 | – | 28
3 | CS(=O)(=O)Nc1ccc(Cl)cc1C(=O)N1CCCC[C@H]1c1cc2nc(N3CC(N)C3)cc(N3CC(N)C3)n2n1 [Compound 131] | 0.1 to 100 | – | 100
4 | Cc1ccc(NS(C)(=O)=O)c(C(=O)N2CCCC(C)C2c2cc3[nH]c(C)c(C)c(=O)n3n2)c1 (centres unmarked) [Compound 30] | – | 101 to 1000 | 99
5 | Cc1cn2nc([C@@H]3CCCCN3C(=O)c3ccc(Cl)cc3Cl)cc2nc1N1CC[C@H](N)C1 [Compound 390] | 101 to 1000 | – | 86
6 | Cc1cc(NS(C)(=O)=O)c(C(=O)N2CCCC[C@H]2c2cc3nc(C4CC4)cc(C)n3n2)s1 [Compound 111] | 0.1 to 100 | – | 95
7 | CS(=O)(=O)Nc1ccc(Cl)cc1C(=O)N1CCCC[C@H]1c1cc2nc(N3CCC3)cc(N3CCNC(C(F)(F)F)C3)n2n1 (some centres unmarked) [Compound 159] | 0.1 to 100 | – | 100
8 | CCc1ocnc1C(=O)N1CCCC[C@H]1c1cc2nc(N3CC[C@H](N)C3)c(C)cn2n1 [Compound 284] | 0.1 to 100 | – | 97.8

Second part, led by results:

Row | EC50 [2] [nM] | EC50 (RSV-induced cytopathic effects) [nM] | SMILES | inhibition at 0.5 µM [1] [%]
9 | 0.1 to 100 | – | CCn1nc(C)cc1C(=O)N1CCCC[C@H]1c1cc2nc(N3CC[C@H](N)C3)c(C)cn2n1 [Compound 302] | 100
10 | 0.1 to 100 | – | Cc1ccccc1C(=O)N1CCCC[C@H]1c1cc2nc(N3CC[C@H](N)C3)c(C)cn2n1 [Compound 158] | 100
11 | 0.1 to 100 | – | Cc1cn2nc([C@@H]3CCCCN3C(=O)c3cc(C4CC4)[nH]n3)cc2nc1N1CC[C@H](N)C1 [Compound 297] | 95
12 | 0.1 to 100 | – | Cc1cn2nc([C@@H]3CCCCN3C(=O)c3cc(Cl)ccc3NS(C)(=O)=O)cc2nc1N1CC(OC(=O)CCC(=O)O)C1 [Compound 144] | 99
13 | 0.1 to 100 | – | Cc1cc(C)cc(C(=O)N2CCCC[C@H]2c2cc3nc(N4CC[C@H](N)C4)c(C)cn3n2)c1 [Compound 160] | 100
14 | 0.1 to 100 | – | Cc1ccc(NS(C)(=O)=O)c(C(=O)N2CCCC(C)C2c2cc3nc(C)c(C)cn3n2)c1 (centres unmarked) [Compound 36] | 90
15 | 0.1 to 100 | – | Cc1cn2nc([C@@H]3CCCCN3C(=O)c3ccccc3-c3cccnc3)cc2nc1N1CC[C@H](N)C1 [Compound 409] | 99
16 | 0.1 to 100 | – | CN(C)[C@H]1CCN(c2cc(N3CCC3)nc3cc([C@@H]4CCCCN4C(=O)c4cc(Cl)ccc4NS(C)(=O)=O)nn23)C1 [Compound 76] | 100
